Tests used:
rectum of the carp = experiment: Measurement of the rectum constricting activity of the carp (isolated intestine, tension recording); type: cell-based; conditions: added to the chamber with the amount corresponding to one head of Octopus vulgaris; FIGS. 3 and 4
Procedure: (§1) The rectum constricting activity of the carp was performed as follow. That is, the intestine of the carp was excised, and the both ends thereof were fastened with a cotton thread. Then, one end thereof was fixed to a sample chamber (2 ml capacity) and another end was fixed to a transducer to obtain a specimen for the examination. The samples to be measured were dissolved into the physiological saline solution, and added to the sample chamber. The changes of tension of the intestine by constriction were recorded.

ileum of the guinea pig = experiment: Measurement of the ileum constricting activity of the guinea pig (isolated ileum, tension recording); type: cell-based; conditions: concentration of 1×10^−8 M in chamber, 37° C. physiological saline; FIGS. 5 and 6
Procedure: The ileum constricting activity of the guinea pig was performed in accordance with a method by Champagne et al. (Champagne D. E. et al., Proc. Natl. Acad. Sci. USA., 91, 138-142, 1994).
as §1, with “ileum” for “rectum constricting activity”, “guinea pig” for “carp was performed as follow. That is, the intestine of the carp”, “(5” for “(2”, “examination. The inside of the sample chamber was maintained constantly with 37° C. physiological saline.” for “examination.”, “ileum” for “intestine”

Substance	constricting activity against the rectum of the carp (rectum of the carp)	constricting activity against the ileum of the guinea pig (ileum of the guinea pig)
H-Lys-Pro-Pro-Ser-Ser-Ser-Glu-Phe-Ile-Gly-Leu-Met-NH2 (H-KPPSSSEFIGLM-NH2) [Compound (2), tachykinin neuropeptide of Octopus vulgaris posterior salivary gland, isolated from Fraction B and also synthesized]	constricted strongly	constricted strongly
H-Lys-Pro-Pro-Ser-Ser-Ser-Glu-Phe-Val-Gly-Leu-Met-NH2 (H-KPPSSSEFVGLM-NH2) [Compound (1), tachykinin neuropeptide of Octopus vulgaris posterior salivary gland, isolated from Fraction A and also synthesized]	constricted strongly	constricted strongly

Reference: patent publication US20090023184A1, “Novel Tachykinin Peptides, Precursor Peptides Thereof And Genes Encoding The Same” (SUNTORY LIMITED, priority 1999, published 2009)
